Reference: patent US20250320224A1 (DOMAIN THERAPEUTICS, priority 2022, published 2025)

Molecular target: T1, human PAR-2 (hPAR-2) receptor (Homo sapiens, UniProt P55085)
T1 construct: expressed in HEK-293 cells in an endogenous manner; endogenous in cells; host or cells: HEK-293
T1 sequence (P55085 26-397): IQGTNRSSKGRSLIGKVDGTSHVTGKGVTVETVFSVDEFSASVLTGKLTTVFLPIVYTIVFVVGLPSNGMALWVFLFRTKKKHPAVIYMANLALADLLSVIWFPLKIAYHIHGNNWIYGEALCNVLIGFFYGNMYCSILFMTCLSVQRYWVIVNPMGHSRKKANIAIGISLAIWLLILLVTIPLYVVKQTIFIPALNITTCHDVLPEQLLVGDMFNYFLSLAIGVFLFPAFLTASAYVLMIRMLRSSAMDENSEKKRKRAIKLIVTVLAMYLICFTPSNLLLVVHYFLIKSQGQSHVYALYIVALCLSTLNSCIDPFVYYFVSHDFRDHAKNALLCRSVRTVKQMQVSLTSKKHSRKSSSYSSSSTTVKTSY
Assay: In vitro human PAR-2 functional antagonist activity using calcium assays
Format: cell-based
Conditions: hPAR-2 endogenously expressed in HEK-293 cells; stimulated by 2-Furoyl-LIGRLO-NH2 peptide; Fluo4AM intracellular calcium, FLIPR Tetra
Procedure, shortened: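 HEK-293 cells with endogenous hPAR-2 were loaded with Fluo4AM and read for intracellular Ca2+ on FLIPR. After 10 min with compound alone, cells were stimulated with 2-Furoyl-LIGRLO-NH2 at the concentration giving 80% of maximal response. Inhibition was then recorded over 5 min relative to buffer and agonist-only signals.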

IC50 [µM]	Structure (SMILES)
0.5 to 10	CC1(C)CN(c2ccc(Cl)c(F)c2)Cc2sc(C(=O)N3CCN(c4ccc(CC(=O)O)cn4)CC3(C)C)nc21 [Example 270, 2-(6-(4-(5-(4-chloro-3-fluorophenyl)-7,7-dimethyl-4,5,6,7-tetrahydrothiazolo[5,4-c]pyridine-2-carbonyl)-3,3-dimethylpiperazin-1-yl)pyridin-3-yl)acetic acid]
0.5 to 10	CC1(C)CN(c2ccc(Cl)c(F)c2)Cc2cn(C(=O)N3CCN(c4ccc(CC(=O)O)cn4)CC3(C)C)nc21 [Example 273, 2-(6-(4-(5-(4-chloro-3-fluorophenyl)-7,7-dimethyl-4,5,6,7-tetrahydro-2H-pyrazolo[4,3-c]pyridine-2-carbonyl)-3,3-dimethylpiperazin-1-yl)pyridin-3-yl)acetic acid]
< 0.5	Cc1cc(N2CCN(C(=O)c3ccc4c(n3)C(C)(C)CN4c3ccc(C(F)(F)F)c(F)c3)C(C)(C)C2)nc(C)c1C(=O)O [Example 275, 6-(4-(1-(3-fluoro-4-(trifluoromethyl)phenyl)-3,3-dimethyl-2,3-dihydro-1H-pyrrolo[3,2-b]pyridine-5-carbonyl)-3,3-dimethylpiperazin-1-yl)-2,4-dimethylnicotinic acid]
< 0.5	Cc1cc(N2CCN(C(=O)c3cnc4c(n3)C(C)(C)CN4c3cc(F)c(F)c(F)c3)C(C)(C)C2)nc(C)c1C(=O)O [Example 277, 6-(4-(7,7-dimethyl-5-(3,4,5-trifluorophenyl)-6,7-dihydro-5H-pyrrolo[2,3-b]pyrazine-2-carbonyl)-3,3-dimethylpiperazin-1-yl)-2,4-dimethylnicotinic acid]
< 0.5	Cc1cc(N2CCN(C(=O)c3ccc4c(n3)C(C)(C)CN4c3ccc(C4CC4)cc3)C(C)(C)C2)nc(C)c1C(=O)O [Example 279, 6-(4-(1-(4-cyclopropylphenyl)-3,3-dimethyl-2,3-dihydro-1H-pyrrolo[3,2-b]pyridine-5-carbonyl)-3,3-dimethylpiperazin-1-yl)-2,4-dimethylnicotinic acid]
< 0.5	CC1(C)CC2(CN(c3ccc(F)c(F)c3)c3ncc(C(=O)N4CCNC(=O)C4(C)C)nc32)C1 [Example 282, 4-(5′-(3,4-difluorophenyl)-3,3-dimethyl-5′,6′-dihydrospiro[cyclobutane-1,7′-pyrrolo[2,3-b]pyrazine]-2′-carbonyl)-3,3-dimethylpiperazin-2-one]

The remaining lines, values behind:

Structure (SMILES)	IC50 [µM]
CCCCCCCCCCCCCCCC(=O)N(C)CCN(C)C(=O)CCOCCOCCOCCNC(=O)CCOCCOCCOCCNC(=O)CCCCCCC(=O)N1CCN(C(=O)c2cnc3c(n2)C2(CN3c3ccc(Cl)c(F)c3)CC(C)(C)C2)C(C)(C)C1 [Example 261, N-(37-(4-(5′-(4-chloro-3-fluorophenyl)-3,3-dimethyl-5′,6′-dihydrospiro[cyclobutane-1,7′-pyrrolo[2,3-b]pyrazine]-2′-carbonyl)-3,3-dimethylpiperazin-1-yl)-3-methyl-4,17,30,37-tetraoxo-7,10,13,20,23,26-hexaoxa-3,16,29-triazaheptatriacontyl)-N-methylpalmitamide]	0.5 to 10
Cc1cc(N2CCN(C(=O)c3cnc4c(n3)C(C)(C)CN4c3ccc(Cl)c(F)c3)C(C)(C)C2)c(C(=O)O)c(C)n1 [Example 263, 4-(4-(5-(4-chloro-3-fluorophenyl)-7,7-dimethyl-6,7-dihydro-5H-pyrrolo[2,3-b]pyrazine-2-carbonyl)-3,3-dimethylpiperazin-1-yl)-2,6-dimethylnicotinic acid]	> 10
CC1(C)CN(c2ccc(Cl)c(F)c2)c2ccc(C(=O)N3CCN(c4ccc(CC(=O)O)cn4)CC3(C)C)nc2O1 [Example 265, 2-(6-(4-(1-(4-chloro-3-fluorophenyl)-3,3-dimethyl-2,3-dihydro-1H-pyrido[2,3-b][1,4]oxazine-6-carbonyl)-3,3-dimethylpiperazin-1-yl)pyridin-3-yl)acetic acid]	> 10
CC1(C)CC2(CN(c3ccc(Cl)c(F)c3)c3ncc(S(=O)(=O)N4CCC(N5CCNC5=O)CC4)nc32)C1 [Example 266, 1-(1-((5′-(4-chloro-3-fluorophenyl)-3,3-dimethyl-5′,6′-dihydrospiro[cyclobutane-1,7′-pyrrolo[2,3-b]pyrazin]-2′-yl)sulfonyl)piperidin-4-yl)imidazolidin-2-one]	> 10
CC1(C)CN(c2ccc(Cl)c(F)c2)c2ncc(C(=O)N3CCN(c4ccc(CC(=O)O)cn4)CC3(C)C)nc2O1 [Example 268, 2-(6-(4-(4-(4-chloro-3-fluorophenyl)-2,2-dimethyl-3,4-dihydro-2H-pyrazino[2,3-b][1,4]oxazine-7-carbonyl)-3,3-dimethylpiperazin-1-yl)266yridine-3-yl)acetic acid]	> 10
